From ChEMBL document CHEMBL1133342, “A convenient extension of the Wessely-Moser rearrangement for the synthesis of substituted alkylaminoflavones as neuroprotective agents in vitro” (Bioorg Med Chem Lett, 2000)

Legend:
[1] = Compound was tested in vitro for intrinsic neurotoxicity against murine HT-22 hippocampal cell cultures by MTT reduction assay; parameters: species or system Hippocampus; settings: mouse, HT-22 hippocampal cells; read-out: TC50 (the source's name)
[2] = Compound was tested in vitro for neuroprotective activity against L-homocysteic acid cytotoxicity in murine HT-22 hippocampal cell cultures by MTT reduction assay; type: functional, Mus musculus, Hippocampus
[3] = Maximum tolerated concentration in vitro against murine HT-22 hippocampal cell cultures by MTT reduction assay; type: functional, Mus musculus, Hippocampus
[4] = Compound was tested in vitro for intrinsic neurotoxicity against murine HT-22 hippocampal cell cultures by LDH assay; parameters: species or system Hippocampus; settings: mouse, HT-22 hippocampal cells; read-out: TC50 (the source's name)
[5] = Compound was tested in vitro for neuroprotective activity against L-homocysteic acid cytotoxicity in murine HT-22 hippocampal cell cultures by LDH assay; type: functional, Mus musculus, Hippocampus
[6] = Maximum tolerated concentration in vitro against murine HT-22 hippocampal cell cultures by LDH assay; type: functional, Mus musculus, Hippocampus

| SMILES | CC50 [1] | PC50 [2] | MTC [3] | CC50 [4] | PC50 [5] | MTC [6] |
| --- | --- | --- | --- | --- | --- | --- |
| CCCNc1c(O)cc(O)c2c(=O)cc(-c3ccccc3)oc12 | 14 µM | 7 µM | 5 µM | 28 µM | 8 µM | 25 µM |
| CC(C)CNc1c(O)cc(O)c2c(=O)cc(-c3ccccc3)oc12 | 12 µM | 4.6 µM | 10 µM | 12 µM | 4.2 µM | 10 µM |
| CC(C)Nc1c(O)cc2oc(-c3ccccc3)cc(=O)c2c1O | 18 µM | 5.1 µM | 10 µM | 152 µM | 6.6 µM | 100 µM |
| CC(C)CCNc1c(O)cc(O)c2c(=O)cc(-c3ccccc3)oc12 | 12 µM | 5.3 µM | 10 µM | 16 µM | 5.5 µM | 10 µM |
| CCCNc1c(O)cc2oc(-c3ccccc3)cc(=O)c2c1O | 10 µM | 5.2 µM | 5 µM | 176 µM | 5.5 µM | 100 µM |
| CC(C)CCNc1c(O)cc2oc(-c3ccccc3)cc(=O)c2c1O | 16 µM | 5.2 µM | 5 µM | 116 µM | 5.2 µM | 100 µM |
| C=CCNc1c(O)cc(O)c2c(=O)cc(-c3ccccc3)oc12 | 18 µM | >5 µM | 5 µM | 11 µM | >10 µM | 10 µM |
